Source: BindingDB's records for doi:10.1021/jm990587w (Alcon Laboratories, 2000)

Biological target: Prostaglandin F2-alpha receptor (Bos taurus)
Assay: Inhibitory Binding constant (n=2) to Prostanoid FP receptor expressed in bovine corpus luteum

| Ki [µM] | Compound |
| --- | --- |
| 56 | O=C(O)CCC/C=C\C[C@@H]1[C@@H](/C=C/[C@H](O)COc2cccc(Cl)c2)[C@H](O)CC[C@@H]1O [7-{2-[4-(3-Chloro-phenoxy)-3-hydroxy-but-1-enyl]-3,6-dihydroxy-cyclohexyl}-hept-5-enoic acid] |
| 1.9 | O=C(O)CCC/C=C\C[C@@H]1[C@@H](/C=C/[C@@H](O)COc2cccc(Cl)c2)[C@H](O)CC[C@@H]1O [7-{2-[4-(3-Chloro-phenoxy)-3-hydroxy-but-1-enyl]-3,6-dihydroxy-cyclohexyl}-hept-5-enoic acid] |
